The values below come from patent US20080214552A1, “Substituted Pyridazinecarboxamides and Derivatives Thereof” (priority 2004, published 2008).

A short description of data set [1]: log P determination by HPLC on reverse-phase column (EEC directive 79/831 Annex V.A8). Format: physicochemical. The following applies: reverse-phase C18 HPLC column, acidic range (pH 2.3), 0.1% aqueous phosphoric acid/acetonitrile, 43° C. How it is done: The log P values given in the table were determined in accordance with EEC directive 79/831 Annex V.A8 by HPLC (High Performance Liquid Chromatography) on a reverse-phase column (C 18). Temperature: 43° C. (a) Mobile phases for the determination in the acidic range (pH 2.3): 0.1% aqueous phosphoric acid, acetonitrile; linear gradient from 10% acetonitrile to 90% acetonitrile—the corresponding measurement results in table 1 are marked a). Calibration was carried out using unbranched alkan-2-ones (having 3 to 16 carbon atoms) with known log P values (determination of the log P values by the retention times using linear inter-polation between two successive alkanones).

Data set [2] relates to larvae of the mustard beetle (Phaedon cochleariae). Description: Phaedon test (spray treatment). Format: in vivo. Conditions: 500 g/ha, spray treatment of Chinese cabbage disks. How it is done:
(§1) To produce a suitable preparation of active compound, 1 part by weight of active compound is mixed with the stated amounts of solvents and emulsifier, and the concentrate is diluted with emulsifier-containing water to the desired concentration. Disks of Chinese cabbage (Brassica pekinensis) are sprayed with a preparation of active compound of the desired concentration and, after drying, populated with larvae of the mustard beetle (Phaedon cochleariae). After the desired period of time, the effect in % is determined. 100% means that all beetle larvae have been killed; 0% means that none of the beetle larvae have been killed.

Data set [3] relates to caterpillars of the armyworm (Spodoptera frugiperda). The data set can be described thus: Spodoptera frugiperda test (spray treatment). Format: in vivo. Conditions: 500 g/ha, spray treatment of corn leaf disks. The protocol:
as §1, with “corn leaves (Zea mays)” for “Chinese cabbage (Brassica pekinensis)”, “caterpillars” for “larvae”, “armyworm (Spodoptera frugiperda).” for “mustard beetle (Phaedon cochleariae).”, “caterpillars” for “beetle larvae”

Each structure is given as a SMILES string.

For `N#CCNC(=O)c1cnncc1C(F)(F)F` [Example 1, N-cyanomethyl-5-trifluoromethylpyridazine-4-carboxamide], the chromatographic logP in data set [1] was determined as 0.6. As to `O=C(NC(c1ccccc1)c1ccccn1)c1cnncc1C(F)(F)F` (stereo not shown) [Ia-59], the “Kill rate in % after 7 d” value in data set [2] and in data set [3] was 100% throughout.

`COC(=O)c1cnncc1C(F)(F)F` [methyl 5-trifluoromethylpyridazine-4-carboxylate]: the chromatographic logP in data set [1] came out at 1.68.
